{
  "source": "patent US9605026B2",
  "about": "“Hydrogen-bond surrogate peptides and peptidomimetics for p53 reactivation” (New York University, priority 2013, dated 2017)",
  "key": {"[1]": {"system": "p53", "assay": "p53 transcriptional activity (Cignal p53 luciferase reporter) in UMSCC47 cells", "format": "cell-based, human", "details": "UMSCC47 (HPV-positive), 10 μM, 24 hours, vs control (vehicle)", "excerpt": "(§1) FIG. 5A is an schematic illustration showing that CH1 has two distinct target sites. HIF1-α/p300 structures were used as guides to design helix mimetics that target site A and site B on the CH1 domain of p300. […] CH1iA (SEQ ID NO: 7) and CH1iB (SEQ ID NO: 8) were designed to mimic two helices from the C-terminal domain of HIF-1α. The peptides were locked into the helical conformation by the hydrogen bond surrogate method. FIG. 5C is a graph of p53 activity. UMSCC47 (left) and UMSCC74A (right) cells were co-transfected with a p53 Firefly luciferase reporter plasmid and a control Renilla luciferase plasmid. After 24 hours, cells were treated with control (vehicle), CH1iA (10 μM), or CH1iB (10 μM) for 24 hours. Firefly luciferase activity was normalized to Renilla luciferase activity to control for transfection efficiency. Data is normalized to control and presented as mean±SEM. *P<0.05, n=3. FIG. 5D is a western blot showing total and acetylated p53 levels. UMSCC47 (left) and UMSCC74A (right) cells were treated with control (vehicle), CH1iA (10 μM), or CH1iB (10 μM) for 24 hours. Cell lysates were immunoblotted with anti-p53 or anti-acetylated[K382]-p53 antibody. FIG. 5E is a pair of graphs of p300, p53, p21, miR-34a, and miR-200c expression. UMSCC47 (top panel) and UMSCC74A (bottom panel) cells were treated with control (vehicle), CH1iA (10 μM), or CH1iB (10 μM) for 24 hours. mRNA expression was determined using qPCR with validated TaqMan assays. Data is normalized to control cells and presented as mean±SEM. *P<0.01, control vs. CH1iB, n=3. FIG. 5F is a western blot showing HPV16 E6-p300 association. UMSCC47 cells were treated with control (vehicle), CH1iA (10 μM), or CH1iB (10 μM) for 24 hours. Cell lysates were extracted, immunoprecipitated with anti-p300 antibody, and immunoblotted with anti-E6 antibody. Cell lysates were immunoblotted with anti-E6 or anti-p300 antibody for input control. FIG. 5G is a set of graphs of cell proliferation. UMSCC47 (top left panel), UMSCC74A (top right panel), and IMR90 (human normal fibroblasts) (bottom panel) cells were treated with control (vehicle), CH1iA (10 μM), CH1iB (10 μM), cis-platinum (10 μM), CH1iA (10 μM) and cis-platinum (10 μM), or CH1iB (10 μM) and cis-platinum (10 μM) for 24, 48, or 72 hours. Data is normalized to Day 0 and presented as mean±SEM. *P<0.01, control vs. CH1iB or cis-platinum, **P<0.01 CH1iB or cis-platinum vs. CH1iB and cis-platinum, n=6.\nFIG. 6A is a western blot showing total and acetylated p53 levels. […] UMSCC47 cells were treated with control (vehicle), CH1iB (10 μM), cis-platinum (10 μM), or CH1iB (10 μM) and cis-platinum (10 μM) for 24 hours. mRNA expression was determined using qPCR with validated TaqMan assays. […]"}, "[2]": {"system": "UMSCC47 cells", "assay": "Cell proliferation (MTT) in UMSCC47 cells", "format": "cell-based, human", "excerpt": "as §1\nFIG. 7A is a graph of p53 transcriptional activity. UMSCC47 cells were co-transfected with a p53 Firefly luciferase reporter plasmid and a control Renilla luciferase plasmid. After 24 hours, cells were treated with control (vehicle) or CH1iB-mut (10 μM) for 24 hours. Firefly luciferase activity was normalized to Renilla luciferase activity to control for transfection efficiency. Data is presented as mean±SEM. *P<0.05, n=5. FIG. 7B is a graph of cell proliferation. UMSCC47 cells were treated with control (vehicle), CH1iB-mut (10 μM), cis-platinum (10 μM), or CH1iB-mut (10 μM) and cis-platinum (10 μM) for 24 or 48 hours. Data is normalized to Day 0 and presented as mean±SEM. *P<0.01, control or CH1iB-mut vs. cis-platinum or cis-platinum+CH1iB-mut, n=6.\nCell proliferation was assessed using the MTT reagent (Roche Molecular Biochemicals, Nutley, N.J.) to detect metabolic active cells. Absorbance was measured at 570 nm in the Spectra Max 190 ELISA reader (Molecular Devices, Sunnyvale, Calif.) after overnight incubation. […]"}},
  "data": [
    {"substance": "XELA*RAADQ-NH2 (ELXRAADQ; HBS: 4-pentenoic acid, N-allylalanine; C-terminal amide; CH1iB-MUT)", "values": [
      {"measurement": "p53 activity increase", "setting": "[1]", "result": 14, "unit": "%"},
      {"measurement": "effect on anti-proliferative efficacy of cis-platinum (combination)", "setting": "[2]; UMSCC47, 10 μM with cis-platinum 10 μM", "result": "no effect"},
      {"measurement": "cell proliferation, single-agent", "setting": "[2]; UMSCC47, 10 μM, 24-72 hours", "result": "no effect"}
    ]}
  ]
}
